Data reported in PubChem BioAssay AID1963968 (Molecular Pharmacology Branch, DTP, NCI, 2024).
pIC50: −log10 of the molar value.

System: 945468-187-T-J3-PDC spheroids with HUVEC/MSC, viability
Assay: Anticancer human tumor 945468-187-T-J3-PDC patient-derived rectal carcinoma cell line growth inhibition [PI3K]
Details: for pIC50: curve of first compound; for viability, T/C: stronger effect = lower value
Description: Combinatorial screen of targeted agents with the PI3K inhibitors inavolisib, alpelisib, duvelisib, and copanlisib in multi-cell type tumor spheroids
A high-throughput screen of multi-cell type tumor spheroids was designed to identify active combinations of targeted small molecules and PI3K pathway inhibitors. Complex spheroids include a stromal component modeled by human endothelial cells (HUVEC) and fibroblasts modeled by human mesenchymal stem cells (MSCs). The concentration ranges selected for each drug and investigational agent were based upon clinically achievable concentrations if the clinical Cmax of the agent was known.
Compounds. The drugs and investigational agents: inavolisib (NSC800729), alpelisib (NSC765974), duvelisib (NSC772469), copanlisib (NSC816437), ipatasertib (NSC767898), afuresertib (NSC778305), talazoparib (NSC767125), sapanisertib (NSC764658), selumetinib (NSC741078), tovorafenib (DAY101, NSC766906), vemurafenib (NSC761431), ravoxertinib (NSC781343), sotorasib (NSC818433), MRTX1133 (NSC 836407), abemaciclib (NSC 768073), palbociclib (NSC758247), venetoclax (NSC 766270), SY5609 (NSC837396), enzalutamide (NSC755605), and darolutamide (NSC825331), were obtained from the National Cancer Institute (NCI) Developmental Therapeutics Program Chemical Repository. The FDA-approved anticancer drug set is available from the NCI Developmental Therapeutics Program. […] The stock solutions were prepared in dimethyl sulfoxide (DMSO, Sigma-Aldrich, St. Louis, MO, cat. D2650) at 800-fold the tested concentration and stored at -70 degrees C prior to their use. All drugs and investigational agents were tested over a range starting from a high concentration at or near the clinical Cmax and decreasing in half-log increments. If the clinical Cmax for an agent had not been determined, the highest concentration tested was 10 microM.
Cell Culture. All cells were maintained in an incubator at 37 degrees C and 5% CO2 with 95% humidity. The PDC lines were cultured according to standard operating procedures established by the NCI PDMR (https://pdmr.cancer.gov/sops/default.htm). All PDCs were thawed and cultured in Matrigel-coated flasks prepared with a working solution of 1X Ham's F-12 nutrient mix, without supplementation (Invitrogen, Waltham, MA, cat. 11765054), 100 U/mL penicillin-streptomycin (Invitrogen, cat. 15140122), and 2.5% Matrigel (Corning Inc., Corning, NY, cat. 354248) for the first three passages. The 354836-022-R-J1-PDC, 475296-252-R-J1-PDC, and 997726-040-R-J2-PDC lines were cultured in 6A media, which includes advanced DMEM/F-12 (Thermo Fisher Scientific, cat. 12634028), 10 mM HEPES (Thermo Fisher Scientific, cat. 15630080), 1X GlutaMAX supplement (Thermo Fisher Scientific, cat. 35050061), 0.1 mg/mL primocin (InvivoGen, San Diego, CA, cat. ant-pm-2), 10% defined fetal bovine serum, heat inactivated (HyClone Laboratories Inc., Logan, UT, cat. SH30070.03HI), 50% L-WRN conditioned media (ATCC, cat. CRL-3276), 1.25 mM N-Acetyl-L-cysteine (Sigma-Aldrich, cat. A9165), 10 mM nicotinamide (Sigma-Aldrich, cat. N0636), 1X B-27 supplement (Thermo Fisher Scientific, cat. 17504044), 1X N-2 supplement (Thermo Fisher Scientific, cat. 17502048), and 10 microM Y-27632 dihydrochloride (Tocris Bioscience, Bristol, United Kingdom, cat. 1254). The 624824-186-R-J2-PDC line was cultured in 6C/Colon 1B media, which includes all 6A media components plus 50 ng/mL human EGF recombinant protein (Thermo Fisher Scientific, cat. PHG0311). […]

[1] = second compound 0.00316 µM, first compound 0.0316 µM
[2] = second compound 0.00316 µM, first compound 0.1 µM
[3] = second compound 0.00316 µM, first compound 0.316 µM
[4] = second compound 0.00316 µM, first compound 1 µM
[5] = second compound 0.00316 µM, first compound 3.16 µM
[6] = second compound 0.00316 µM, first compound 10 µM
[7] = second compound 0.01 µM, first compound 0.0316 µM
[8] = second compound 0.01 µM, first compound 0.1 µM
[9] = second compound 0.01 µM, first compound 0.316 µM
[10] = second compound 0.01 µM, first compound 1 µM
[11] = second compound 0.01 µM, first compound 3.16 µM
[12] = second compound 0.01 µM, first compound 10 µM
[13] = second compound 0.0316 µM, first compound 0.0316 µM
[14] = second compound 0.0316 µM, first compound 0.1 µM
[15] = second compound 0.0316 µM, first compound 0.316 µM
[16] = second compound 0.0316 µM, first compound 1 µM
[17] = second compound 0.0316 µM, first compound 3.16 µM
[18] = second compound 0.0316 µM, first compound 10 µM
[19] = second compound 0.1 µM, first compound 0.0316 µM
[20] = second compound 0.1 µM, first compound 0.1 µM
[21] = second compound 0.1 µM, first compound 0.316 µM
[22] = second compound 0.1 µM, first compound 1 µM
[23] = second compound 0.1 µM, first compound 3.16 µM
[24] = second compound 0.1 µM, first compound 10 µM
[25] = second compound 0.316 µM, first compound 0.0316 µM
[26] = second compound 0.316 µM, first compound 0.1 µM
[27] = second compound 0.316 µM, first compound 0.316 µM
[28] = second compound 0.316 µM, first compound 1 µM
[29] = second compound 0.316 µM, first compound 3.16 µM
[30] = second compound 0.316 µM, first compound 10 µM
[31] = second compound 1 µM, first compound 0.0316 µM
[32] = second compound 1 µM, first compound 0.1 µM
[33] = second compound 1 µM, first compound 0.316 µM
[34] = second compound 1 µM, first compound 1 µM
[35] = second compound 1 µM, first compound 3.16 µM
[36] = second compound 1 µM, first compound 10 µM
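Further: spheroids exposed to agents for 7 days before viability read.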
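Wherever viability, T/C is given: 100% = DMSO vehicle control viability.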

CC(C)NCC(C(=O)N1CCN(c2ncnc3c2C(C)CC3O)CC1)c1ccc(Cl)cc1 (stereo unspecified) + CC(Nc1ccc2c(c1)OCCn1cc(N3C(=O)OCC3C(F)F)nc1-2)C(N)=O
pIC50 (second compound 0.00316 µM): 5.07
pIC50 (second compound 0.01 µM): < 5.00
pIC50 (second compound 0.0316 µM): 5.16
pIC50 (second compound 0.1 µM): 5.55
pIC50 (second compound 0.316 µM): 6.04
pIC50 (second compound 1 µM): 5.86
viability, T/C [1]: 93.8%
viability, T/C [2]: 93.9%
viability, T/C [3]: 103%
viability, T/C [4]: 91.6%
viability, T/C [5]: 58.6%
viability, T/C [6]: 48.5%
viability, T/C [7]: 111%
viability, T/C [8]: 103%
viability, T/C [9]: 104%
viability, T/C [10]: 96.7%
viability, T/C [11]: 54.9%
viability, T/C [12]: 59.2%
viability, T/C [13]: 93.7%
viability, T/C [14]: 91.8%
viability, T/C [15]: 94.1%
viability, T/C [16]: 90.9%
viability, T/C [17]: 55.6%
viability, T/C [18]: 47.3%
viability, T/C [19]: 101%
viability, T/C [20]: 93.4%
viability, T/C [21]: 87%
viability, T/C [22]: 76.4%
viability, T/C [23]: 45%
viability, T/C [24]: 31.5%
viability, T/C [25]: 101%
viability, T/C [26]: 89.3%
viability, T/C [27]: 62.7%
viability, T/C [28]: 49.6%
viability, T/C [29]: 39%
viability, T/C [30]: 29.3%
viability, T/C [31]: 62.8%
viability, T/C [32]: 70.4%
viability, T/C [33]: 57.8%
viability, T/C [34]: 57.3%
viability, T/C [35]: 34.1%
viability, T/C [36]: 26.7%

CC1(C)CCC(CN2CCN(c3ccc(C(=O)NS(=O)(=O)c4ccc(NCC5CCOCC5)c([N+](=O)[O-])c4)c(Oc4cnc5[nH]ccc5c4)c3)CC2)=C(c2ccc(Cl)cc2)C1 + CC(Nc1ccc2c(c1)OCCn1cc(N3C(=O)OCC3C(F)F)nc1-2)C(N)=O
pIC50 (second compound 0.00316 µM): < 5.00
pIC50 (second compound 0.01 µM): < 5.00
pIC50 (second compound 0.0316 µM): < 5.00
pIC50 (second compound 0.1 µM): < 5.00
pIC50 (second compound 0.316 µM): < 5.00
pIC50 (second compound 1 µM): < 5.00
viability, T/C [1]: 96.8%
viability, T/C [2]: 112%
viability, T/C [3]: 102%
viability, T/C [4]: 114%
viability, T/C [5]: 131%
viability, T/C [6]: 52.9%
viability, T/C [7]: 97.7%
viability, T/C [8]: 125%
viability, T/C [9]: 94%
viability, T/C [10]: 114%
viability, T/C [11]: 132%
viability, T/C [12]: 63.2%
viability, T/C [13]: 121%
viability, T/C [14]: 101%
viability, T/C [15]: 112%
viability, T/C [16]: 121%
viability, T/C [17]: 125%
viability, T/C [18]: 63.2%
viability, T/C [19]: 121%
viability, T/C [20]: 114%
viability, T/C [21]: 105%
viability, T/C [22]: 126%
viability, T/C [23]: 125%
viability, T/C [24]: 65.5%
viability, T/C [25]: 107%
viability, T/C [26]: 103%
viability, T/C [27]: 102%
viability, T/C [28]: 113%
viability, T/C [29]: 120%
viability, T/C [30]: 73.2%
viability, T/C [31]: 79.2%
viability, T/C [32]: 68%
viability, T/C [33]: 80%
viability, T/C [34]: 79.2%
viability, T/C [35]: 81.1%
viability, T/C [36]: 53.9%

C[C@@H](NC(=O)c1ncnc(N)c1Cl)c1ncc(C(=O)Nc2cc(C(F)(F)F)c(Cl)cn2)s1 + CC(Nc1ccc2c(c1)OCCn1cc(N3C(=O)OCC3C(F)F)nc1-2)C(N)=O
pIC50 (second compound 0.00316 µM): < 5.00
pIC50 (second compound 0.01 µM): < 5.00
pIC50 (second compound 0.0316 µM): < 5.00
pIC50 (second compound 0.1 µM): < 5.00
pIC50 (second compound 0.316 µM): < 5.00
pIC50 (second compound 1 µM): < 5.00
viability, T/C [1]: 97.2%
viability, T/C [2]: 97.5%
viability, T/C [3]: 116%
viability, T/C [4]: 91.5%
viability, T/C [5]: 111%
viability, T/C [6]: 92%
viability, T/C [7]: 94.7%
viability, T/C [8]: 110%
viability, T/C [9]: 101%
viability, T/C [10]: 88.4%
viability, T/C [11]: 90.8%
viability, T/C [12]: 98.4%
viability, T/C [13]: 94.4%
viability, T/C [14]: 89.3%
viability, T/C [15]: 94.4%
viability, T/C [16]: 95.1%
viability, T/C [17]: 103%
viability, T/C [18]: 94.3%
viability, T/C [19]: 91.2%
viability, T/C [20]: 102%
viability, T/C [21]: 101%
viability, T/C [22]: 100%
viability, T/C [23]: 96.7%
viability, T/C [24]: 95.8%
viability, T/C [25]: 109%
viability, T/C [26]: 112%
viability, T/C [27]: 92.7%
viability, T/C [28]: 92.7%
viability, T/C [29]: 88.8%
viability, T/C [30]: 96.3%
viability, T/C [31]: 67.5%
viability, T/C [32]: 56.1%
viability, T/C [33]: 63.7%
viability, T/C [34]: 56.8%
viability, T/C [35]: 65.1%
viability, T/C [36]: 62.4%
